Values joined by “and” are separate entries in the source; they are usually repeats but may differ in a detail not shown here. Equal values may be shown once. ± gives the expanded uncertainty stated by the source.
Details: for surface tension liquid-gas: Pendant drop shape; for mass density: 101.33 kPa, Liquid, Vibrating tube method

| SMILES | surface tension liquid-gas (303.16 K) [mN/m] | surface tension liquid-gas (313.15 K) [mN/m] | surface tension liquid-gas (323.15 K) [mN/m] | surface tension liquid-gas (363.16 K) [mN/m] | mass density (303.15 K) [kg/m3] | mass density (303.16 K) [kg/m3] | mass density (308.15 K) [kg/m3] | mass density (313.15 K) | mass density (318.15 K) [kg/m3] | mass density (323.15 K) | mass density (328.15 K) [kg/m3] | mass density (333.15 K) | mass density (338.15 K) [kg/m3] | mass density (343.15 K) | mass density (348.15 K) [kg/m3] | mass density (353.15 K) [kg/m3] | surface tension liquid-gas (353.16 K) [mN/m] | mass density (353.16 K) [kg/m3] | mass density (358.15 K) [kg/m3] | mass density (363.15 K) | further results |
| --- | --- | --- | --- | --- | --- | --- | --- | --- | --- | --- | --- | --- | --- | --- | --- | --- | --- | --- | --- | --- | --- |
| Cc1ccccc1 [toluene] | 27.15 ± 0.42 | 25.98 ± 0.41 | 24.89 ± 0.39 | 20.37 ± 0.33 |  |  |  |  |  |  |  |  |  |  |  |  |  |  |  |  | surface tension liquid-gas (308.15 K): 26.51 ± 0.42 mN/m; surface tension liquid-gas (318.13 K): 25.42 ± 0.4 mN/m; surface tension liquid-gas (328.16 K): 24.34 ± 0.38 mN/m; surface tension liquid-gas (333.14 K): 23.65 ± 0.38 mN/m; surface tension liquid-gas (338.16 K): 23.08 ± 0.37 mN/m; surface tension liquid-gas (343.16 K): 22.55 ± 0.36 mN/m; surface tension liquid-gas (348.16 K): 21.98 ± 0.35 mN/m; surface tension liquid-gas (353.15 K): 21.45 ± 0.34 mN/m; surface tension liquid-gas (358.15 K): 20.92 ± 0.34 mN/m; surface tension liquid-gas (368.14 K): 19.86 ± 0.32 mN/m |
| CCOC(=O)CCC(=O)OCC [diethyl butanedioate] | 30.62 ± 0.8 | 29.55 ± 0.78 | 28.42 ± 0.75 | 24.02 ± 0.64 | 1029.59 ± 2.1 | 1029.57 ± 1.1 | 1024.4 ± 2.1 | 1019.2 ± 2 kg/m3 and 1019.2 ± 1.1 kg/m3 | 1014.01 ± 2 | 1008.81 ± 2 kg/m3 and 1008.81 ± 1 kg/m3 | 1003.6 ± 2 | 998.39 ± 2 kg/m3 | 993.16 ± 2 | 987.93 ± 2 kg/m3 | 982.7 ± 2 | 977.45 ± 2 | 25.12 ± 0.66 | 977.44 ± 1 | 972.19 ± 2 | 966.91 ± 1.9 kg/m3 | surface tension liquid-gas (333.17 K): 27.41 ± 0.72 mN/m; mass density (333.17 K): 998.37 ± 1 kg/m3; surface tension liquid-gas (343.17 K): 26.33 ± 0.69 mN/m; mass density (343.17 K): 987.91 ± 1 kg/m3; mass density (363.16 K): 966.9 ± 0.99 kg/m3; surface tension liquid-gas (373.14 K): 22.95 ± 0.61 mN/m; mass density (373.14 K): 956.34 ± 0.98 kg/m3; surface tension liquid-gas (383.15 K): 21.96 ± 0.58 mN/m; mass density (383.15 K): 945.69 ± 0.97 kg/m3; surface tension liquid-gas (393.17 K): 21.03 ± 0.56 mN/m; mass density (393.17 K): 934.96 ± 0.96 kg/m3 |
| COCCOCCOC [2,5,8-trioxanonane] | 28.54 ± 0.74 |  |  |  | 933.98 ± 1.9 | 933.65 ± 0.94 | 928.95 ± 1.9 | 923.97 ± 1.9 kg/m3 | 918.94 ± 1.8 | 913.9 ± 1.8 kg/m3 | 908.84 ± 1.8 | 903.76 ± 1.8 kg/m3 and 903.38 ± 0.91 kg/m3 | 898.67 ± 1.8 | 893.55 ± 1.8 kg/m3 and 893.13 ± 0.9 kg/m3 | 888.41 ± 1.8 | 883.24 ± 1.8 | 22.87 ± 0.6 | 882.79 ± 0.89 | 878.04 ± 1.8 | 872.81 ± 1.8 kg/m3 | surface tension liquid-gas (313.16 K): 27.57 ± 0.72 mN/m; mass density (313.16 K): 923.61 ± 0.93 kg/m3; surface tension liquid-gas (323.17 K): 26.27 ± 0.68 mN/m; mass density (323.17 K): 913.51 ± 0.92 kg/m3; surface tension liquid-gas (333.15 K): 24.98 ± 0.65 mN/m; surface tension liquid-gas (343.15 K): 23.79 ± 0.62 mN/m; surface tension liquid-gas (363.14 K): 21.68 ± 0.57 mN/m; mass density (363.14 K): 872.36 ± 0.88 kg/m3; surface tension liquid-gas (373.14 K): 20.53 ± 0.54 mN/m; mass density (373.14 K): 861.79 ± 0.87 kg/m3; surface tension liquid-gas (383.16 K): 19.43 ± 0.51 mN/m; mass density (383.16 K): 851.06 ± 0.86 kg/m3; surface tension liquid-gas (393.15 K): 18.37 ± 0.49 mN/m; mass density (393.15 K): 840.22 ± 0.85 kg/m3 |
| CCCCC(CC)COC(C)=O (centres undefined) [2-ethylhexyl acetate] |  |  |  |  | 863.51 ± 1.7 |  | 859.15 ± 1.7 | 854.77 ± 1.7 kg/m3 | 850.39 ± 1.7 | 846.01 ± 1.7 kg/m3 | 841.61 ± 1.7 | 837.2 ± 1.7 kg/m3 and 837.29 ± 0.87 kg/m3 | 832.78 ± 1.7 | 828.35 ± 1.7 kg/m3 and 828.44 ± 0.86 kg/m3 | 823.91 ± 1.7 | 819.45 ± 1.6 | 20.22 ± 0.54 | 819.54 ± 0.85 | 814.98 ± 1.6 | 810.49 ± 1.6 kg/m3 and 810.59 ± 0.84 kg/m3 | surface tension liquid-gas (303.17 K): 25.15 ± 0.66 mN/m; mass density (303.17 K): 863.56 ± 0.89 kg/m3; surface tension liquid-gas (313.16 K): 24.23 ± 0.64 mN/m; mass density (313.16 K): 854.84 ± 0.88 kg/m3; surface tension liquid-gas (323.16 K): 23.23 ± 0.62 mN/m; mass density (323.16 K): 846.08 ± 0.87 kg/m3; surface tension liquid-gas (333.15 K): 22.28 ± 0.59 mN/m; surface tension liquid-gas (343.15 K): 21.27 ± 0.57 mN/m; surface tension liquid-gas (363.15 K): 19.26 ± 0.52 mN/m; surface tension liquid-gas (373.15 K): 18.35 ± 0.49 mN/m; mass density (373.15 K): 801.56 ± 0.83 kg/m3; surface tension liquid-gas (383.15 K): 17.44 ± 0.47 mN/m; mass density (383.15 K): 792.46 ± 0.82 kg/m3; surface tension liquid-gas (393.16 K): 16.59 ± 0.45 mN/m; mass density (393.16 K): 783.27 ± 0.82 kg/m3 |
| COCCO [2-methoxyethan-1-ol] | 30.06 ± 0.78 |  |  | 23.6 ± 0.62 | 956.73 ± 1.9 | 956.41 ± 0.96 | 952.09 ± 1.9 | 947.42 ± 1.9 kg/m3 | 942.72 ± 1.9 | 937.98 ± 1.9 kg/m3 | 933.21 ± 1.9 | 928.39 ± 1.9 kg/m3 | 923.54 ± 1.9 | 918.64 ± 1.8 kg/m3 | 913.69 ± 1.8 | 908.7 ± 1.8 | 24.7 ± 0.64 | 908.26 ± 0.91 | 903.65 ± 1.8 | 898.55 ± 1.8 kg/m3 | surface tension liquid-gas (313.14 K): 29.01 ± 0.75 mN/m; mass density (313.14 K): 947.1 ± 0.95 kg/m3; surface tension liquid-gas (323.16 K): 27.98 ± 0.72 mN/m; mass density (323.16 K): 937.62 ± 0.94 kg/m3; surface tension liquid-gas (333.14 K): 26.9 ± 0.7 mN/m; mass density (333.14 K): 928.03 ± 0.93 kg/m3; surface tension liquid-gas (343.16 K): 25.88 ± 0.67 mN/m; mass density (343.16 K): 918.23 ± 0.92 kg/m3; mass density (363.16 K): 898.09 ± 0.9 kg/m3; surface tension liquid-gas (373.16 K): 22.56 ± 0.59 mN/m; mass density (373.16 K): 887.7 ± 0.89 kg/m3; surface tension liquid-gas (383.17 K): 21.58 ± 0.56 mN/m; mass density (383.17 K): 877.05 ± 0.88 kg/m3; surface tension liquid-gas (393.17 K): 20.51 ± 0.54 mN/m; mass density (393.17 K): 866.15 ± 0.87 kg/m3 |
